Reference: patent US20170291905A1, “ARGININE […] INHIBITORS AND USES THEREOF” (Epizyme, Inc., priority 2014, published 2017)
pIC50: −log10 of the molar value.

Each compound was assayed against full-length human PRMT8 isoform 1 (Homo sapiens, UniProt Q9NR22) (assay: PRMT8 biochemical assay (3H-SAM Flashplate, histone H4 31-45 peptide)). Details: 1.5 nM PRMT8, 30 min preincubation, 150 nM peptide.
Sequence of full-length human PRMT8 isoform 1 (Q9NR22 whole entry, canonical isoform): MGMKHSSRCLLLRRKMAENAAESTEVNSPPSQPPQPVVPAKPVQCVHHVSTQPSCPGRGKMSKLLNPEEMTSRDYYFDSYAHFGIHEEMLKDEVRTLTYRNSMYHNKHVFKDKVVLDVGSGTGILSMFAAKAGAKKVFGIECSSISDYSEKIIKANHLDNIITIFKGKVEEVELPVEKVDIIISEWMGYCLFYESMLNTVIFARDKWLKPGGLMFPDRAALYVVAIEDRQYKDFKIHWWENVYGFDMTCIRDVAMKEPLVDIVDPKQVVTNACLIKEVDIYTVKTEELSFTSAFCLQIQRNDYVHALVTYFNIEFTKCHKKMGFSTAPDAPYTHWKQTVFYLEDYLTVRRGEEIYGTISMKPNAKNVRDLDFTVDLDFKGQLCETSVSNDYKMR
From the text: S-adenosylmethionine (SAM), S-adenosylhomocysteine (SAH), bicine, Tween20, dimethylsulfoxide (DMSO), bovine skin gelatin (BSG), isopropyl-β-D-thiogalactopyranoside (IPTG), and Tris(2-carboxyethyl)phosphine hydrochloride solution (TCEP) were purchased from Sigma-Aldrich at the highest level of purity possible. ^3H-SAM was purchase from American Radiolabeled Chemicals with a specific activity of 80 Ci/mmol. 384-well streptavidin Flashplates were purchased from PerkinElmer.
Peptide representative of human histone H4 residues 31-45 was synthesized with an N-terminal linker-affinity tag motif and a C-terminal amide cap by 21st Century Biochemicals. The peptide was purified by high-performance liquid chromatography (HPLC) to greater than 95% purity and confirmed by liquid chromatography mass spectrometry (LC-MS). The sequence was Biot-Ahx-[…]-amide (SEQ ID NO.:8).
The resulting construct encodes an N-terminal GST tag and a thrombin cleavage sequence
E. coli (BL21(DE3) Gold, Stratagene) made competent by the CaCl2 method were transformed with the PRMT8 construct and ampicillin selection. Protein over-expression was accomplished by growing the PRMT8 expressing E. coli clone and inducing expression with 0.3 mM IPTG at 16° C. The culture was grown for 12 hours, harvested by centrifugation, and stored at −80° C. for purification.
GST-tagged PRMT8 was eluted with 50 mM Tris, 2 mM glutathione, pH 7.8. Pooled fractions were cleaved by thrombin (10U) and dialysed in buffer A. GST was removed by reloading the cleaved protein sample onto glutathione sepharose column and PRMT8 was collected in the flow-through fractions. PRMT8 was purified further by ceramic hydroxyapatite chromatography. The column was washed with 50 mM phosphate buffer, 100 mM NaCl, 5% glycerol, 5 mM […], pH 7.8 and PRMT8 was eluted by 100 mM phosphate in the same buffer. Protein was concentrated and buffer was exchanged to 50 mM Tris, 300 mM NaCl, 10% glycerol, 5 mM β-mercaptoethanol, pH 7.8 by ultrafiltration. The purity of recovered protein was 89%.
General Procedure for PRMT8 Enzyme Assays on Peptide Substrates.
The assays were all performed in a buffer consisting of 20 mM Bicine (pH=7.6), 1 mM TCEP, 0.005% BSG, and 0.002% Tween 20, prepared on the day of use. Compounds in 100% DMSO (1 ul) were spotted into a polypropylene 384-well V-bottom plates (Greiner) using a Platemate Plus outfitted with a 384-channel head (Thermo Scientific). DMSO (1 ul) was added to Columns 11, 12, 23, 24, rows A-H for the maximum signal control and 1 ul of SAH, a known product and inhibitor of PRMT8, was added to columns 11, 12, 23, 24, rows I-P for the minimum signal control. A cocktail (40 ul) containing the PRMT8 enzyme was added by Multidrop Combi (Thermo-Fisher). The compounds were allowed to incubate with PRMT8 for 30 min at room temperature, then a cocktail (10 ul) containing ^3H-SAM and peptide was added to initiate the reaction (final volume=51 ul). The final concentrations of the components were as follows: PRMT8 was 1.5 nM, ^3H-SAM was 50 nM, non-radiolabeled SAM was 550 nM, peptide was 150 nM, SAH in the minimum signal control wells was 1 mM, and the DMSO concentration was 2%. The assays were stopped by the addition of non-radiolabeled SAM (10 ul) to a final concentration of 400 uM, which dilutes the ^3H-SAM to a level where its incorporation into the peptide substrate is no longer detectable. 50 ul of the reaction in the 384-well polypropylene plate was then transferred to a 384-well Flashplate and the biotinylated peptides were allowed to bind to the streptavidin surface for at least 1 hour before being washed once with 0.1% Tween20 in a Biotek ELx405 plate washer. The plates were then read in a PerkinElmer TopCount plate reader to measure the quantity of ^3H-labeled peptide bound to the Flashplate surface, measured as disintegrations per minute (dpm) or alternatively, referred to as counts per minute (cpm). […]
For `CNCCN(C)Cc1cncn1[C@H]1CC[C@]2(CC1)CC(C)(C)CO2` [compound 98], the pIC50 was 5.43. Work on `CNCCN(C)Cc1n[nH]cc1[C@H]1CC[C@]2(CC1)CC(C)(C)CO2` [compound 116] yielded a pIC50 of 7.50. `CNCCN(C)Cc1c(C)noc1[C@H]1CC[C@]2(CC1)CC(C)(C)CO2` [compound 114] was tested, and the pIC50 was 7.17. `CN(CCN)Cc1c[nH]nc1[C@H]1CC[C@@]2(CC1)CC(C)(C)CO2` [compound 105] gave a pIC50 of 8.04. For `CNCCN(C)Cc1c[nH]nc1C1C[C@@H](C(=O)N(C)CC(C)C)C(C)(C)[C@H](C(=O)N(C)CC(C)C)C1` (stereo partly shown) [compound 12], the pIC50 was < 5.00. For `CNCCN(C)Cc1sc(C)nc1[C@H]1CC[C@]2(CC1)CC(C)(C)CO2` [compound 100], the pIC50 was 7.36. With `CNCCN(C)Cc1c[nH]nc1[C@H]1CC[C@@H](COCC(F)(F)F)CC1` [compound 23, N1,N2-dimethyl-N1-((3-((1s,4s)-4-((2,2,2-trifluoroethoxy)methyl)cyclohexyl)-1H-pyrazol-4-yl)methyl)ethane-1,2-diamine] the pIC50 was 7.04. Work on `CNCCN(C)Cc1c[nH]nc1[C@H]1CC[C@@]2(CCCCO2)CC1` [compound 3] yielded a pIC50 of 7.48. `CNCCN(C)Cc1nccn1[C@H]1CC[C@]2(CC1)CC(C)(C)CO2` [compound 91] gave a pIC50 of 5.93. `CCOCC1(COCC)CCC(c2nn(C)cc2CN(C)CCNC)CC1` [compound 122] showed a pIC50 of 7.55. `CNCCN(C)Cc1nccn1[C@H]1CC[C@@]2(CC1)CC(C)(C)CO2` [compound 69] gave a pIC50 of 6.56. `CNCCN(C)Cc1c[nH]nc1C1=CCC(CF)(CF)CC1` [compound 15, N-((3-(4,4-bis(fluoromethyl)cyclohex-1-en-1-yl)-1H-pyrazol-4-yl)methyl)-N1,N2-dimethylethane-1,2-diamine] showed a pIC50 of 7.82. Work on `CN(CCN)Cc1nn(C)cc1[C@H]1CC[C@@]2(CC1)CC(C)(C)CO2` [compound 80] yielded a pIC50 of 7.92. For `CCOC[C@@H]1CC(c2n[nH]cc2CN(C)CCNC)CCC1(C)C` (stereo partly drawn) [compound 31, {2-[({3-[(3R)-3-(ethoxymethyl)-4,4-dimethylcyclohexyl]-1H-pyrazol-4-yl}methyl)(methyl)amino]ethyl}(methyl)amine], the pIC50 was 6.49. `CNCCN(C)Cc1nc(C)sc1[C@H]1CC[C@]2(CC1)CC(C)(C)CO2` [compound 99] was tested, and the pIC50 was 7.31. Compound `CNCCN(C)Cc1c[nH]nc1[C@@H]1CC[C@H](OCCCOC)C2(CCCC2)C1` (racemic) [compound 27, N1-((3-((7R,10S)-10-(3-methoxypropoxy)spiro[4.5]decan-7-yl)-1H-pyrazol-4-yl)methyl)-N1,N2-dimethylethane-1,2-diamine] has a pIC50 of 7.51. For `CNCCN(C)Cc1c[nH]nc1[C@H]1CC[C@H](COCC(F)(F)F)CC1` [compound 24, N1,N2-dimethyl-N1-((3-((1r,4r)-4-((2,2,2-trifluoroethoxy)methyl)cyclohexyl)-1H-pyrazol-4-yl)methyl)ethane-1,2-diamine], the pIC50 was 7.74. `CNCCN(C)Cc1c[nH]nc1[C@@H]1CC[C@@H](OCCCOC)C2(CCCC2)C1` (racemic) [compound 26, N1-((3-((7R,10R)-10-(3-methoxypropoxy)spiro[4.5]decan-7-yl)-1H-pyrazol-4-yl)methyl)-N1,N2-dimethylethane-1,2-diamine] showed a pIC50 of 7.17. `CNCCN(C)Cc1c[nH]nc1C1CCC(C)(C)[C@H](COCCCOC)C1` (stereo partly drawn) [compound 30, {2-[({3-[(3R)-3-[(3-methoxypropoxy)methyl]-4,4-dimethylcyclohexyl]-1H-pyrazol-4-yl}methyl)(methyl)amino]ethyl}(methyl)amine] showed a pIC50 of 6.73. For `CNCCN(C)Cc1c[nH]nc1[C@H]1CC[C@]2(CCN(CCC(C)C)C2=O)CC1` [compound 10], the pIC50 was 6.98. For `CNCCN(C)Cc1c[nH]nc1C1CCC(C)(C)[C@H](CO)C1` (stereo partly drawn) [compound 32, [(1R)-2,2-dimethyl-5-[4-({methyl[2-(methylamino)ethyl]amino}methyl)-1H-pyrazol-3-yl]cyclohexyl]methanol], the pIC50 was 6.54. `CNCCN(C)Cc1nn(C)nc1[C@H]1CC[C@@]2(CC1)CC(C)(C)CO2` [compound 64] showed a pIC50 of 7.60. `CNCCN(C)Cc1nncn1[C@H]1CC[C@]2(CC1)CC(C)(C)CO2` [compound 90] was tested, and the pIC50 was < 5.00. With `CCN(C)C(=O)C1CC(c2n[nH]cc2CN(C)CCNC)CC(C(=O)NCCC(C)C)C1(C)C` (stereo not shown) [compound 14, N1-ethyl-N3-isopentyl-N1,2,2-trimethyl-5-(4-((methyl(2-(methylamino)ethyl)amino)methyl)-1H-pyrazol-3-yl)cyclohexane-1,3-dicarboxamide] the pIC50 was < 5.00. `CNCCN(C)Cc1c[nH]nc1C1CCC2(CC1)CC(C)(C)OC2=O` (stereo not shown) [compound 125] was tested, and the pIC50 was 7.80. `CNCCN(C)Cc1ncsc1[C@H]1CC[C@@]2(CC1)CC(C)(C)CO2` [compound 83] gave a pIC50 of 7.73. For `CNCCN(C)Cc1c[nH]nc1[C@H]1CC[C@@]2(CCN(CCC(C)C)C2=O)CC1` [compound 11, (5r,8r)-2-isopentyl-8-(4-((methyl(2-(methylamino)ethyl)amino)methyl)-1H-pyrazol-3-yl)-2-azaspiro[4.5]decan-1-one], the pIC50 was 7.99. Work on `CNCCN(C)Cc1scnc1[C@H]1CC[C@@]2(CC1)CC(C)(C)CO2` [compound 62] yielded a pIC50 of 8.04. With `CNCCN(C)Cc1nnc(C)n1[C@H]1CC[C@]2(CC1)CC(C)(C)CO2` [compound 93] the pIC50 was < 5.00. With `CNCCN(C)Cc1c[nH]nc1C1C[C@H](C(=O)NCCOC)C(C)(C)[C@H](C(=O)NCCOC)C1` (stereo partly shown) [compound 13] the pIC50 was < 5.00. With `CNCCN(C)Cc1c[nH]nc1[C@H]1CC[C@@]2(CC1)COC(C)(C)C2` [compound 126, N1-((3-((5r,8r)-3,3-dimethyl-2-oxaspiro[4.5]decan-8-yl)-1H-pyrazol-4-yl)methyl)-N1,N2-dimethylethane-1,2-diamine] the pIC50 was 7.67. `CCOCC1(COCC)CCC(c2n[nH]cc2CN(C)CCN)CC1` [compound 123] gave a pIC50 of 8.02. Compound `CNCCN(C)Cc1nocc1[C@H]1CC[C@]2(CC1)CC(C)(C)CO2` [compound 118] has a pIC50 of 6.32. For `CN(CCN)Cc1c[nH]nc1[C@H]1CC[C@]2(CC1)CC(C)(C)CO2` [compound 106], the pIC50 was 7.17. With `CCCOCC1(COCCC)CCC(c2n[nH]cc2CN(C)CCNC)CC1` [compound 36, N^1-((3-(4,4-bis(propoxymethyl)cyclohexyl)-1H-pyrazol-4-yl)methyl)-N^1,N^2-dimethylethane-1,2-diamine] the pIC50 was 7.91. `CNCCN(C)Cc1c[nH]nc1C1CCC(C)(C)[C@H](COCCOC)C1` (stereo partly drawn) [compound 35, {2-[({3-[(3R)-3-[(2-methoxyethoxy)methyl]-4,4-dimethylcyclohexyl]-1H-pyrazol-4-yl}methyl)(methyl)amino]ethyl}(methyl)amine] showed a pIC50 of 6.96. `CNCCN(C)Cc1nn(C)cc1[C@H]1CC[C@@]2(CC1)CC(C)(C)CO2` [compound 81] was tested, and the pIC50 was 7.51. With `CNCCNCc1c[nH]nc1[C@H]1CC[C@@]2(CC1)CC(C)(C)CO2` [compound 28, N1-((3-((5s,8s)-3,3-dimethyl-1-oxaspiro[4.5]decan-8-yl)-1H-pyrazol-4-yl)methyl)-N2-methylethane-1,2-diamine] the pIC50 was 7.68. Compound `CCC1(CC)CC2(CCC(c3n[nH]cc3CN(C)CCNC)CC2)N(C)C1=O` (stereo not shown) [compound 22, 3,3-diethyl-1-methyl-8-(4-((methyl(2-(methylamino)ethyl)amino)methyl)-1H-pyrazol-3-yl)-1-azaspiro[4.5]decan-2-one] has a pIC50 of 7.69. `CNCCN(C)Cc1c[nH]nc1C1CCC(C)(C)[C@H](OCC(C)C)C1` (stereo partly drawn) [compound 20, ({3-[(3R)-4,4-dimethyl-3-(2-methylpropoxy)cyclohexyl]-1H-pyrazol-4-yl}methyl)(methyl)[2-(methylamino)ethyl]amine] showed a pIC50 of 7.61.
